Assay [1] has as its target T1, AR in stickleback kidney cytosolic extracts (Gasterosteus aculeatus, UniProt Q801Z1).
T1 sequence (Q801Z1 1-682): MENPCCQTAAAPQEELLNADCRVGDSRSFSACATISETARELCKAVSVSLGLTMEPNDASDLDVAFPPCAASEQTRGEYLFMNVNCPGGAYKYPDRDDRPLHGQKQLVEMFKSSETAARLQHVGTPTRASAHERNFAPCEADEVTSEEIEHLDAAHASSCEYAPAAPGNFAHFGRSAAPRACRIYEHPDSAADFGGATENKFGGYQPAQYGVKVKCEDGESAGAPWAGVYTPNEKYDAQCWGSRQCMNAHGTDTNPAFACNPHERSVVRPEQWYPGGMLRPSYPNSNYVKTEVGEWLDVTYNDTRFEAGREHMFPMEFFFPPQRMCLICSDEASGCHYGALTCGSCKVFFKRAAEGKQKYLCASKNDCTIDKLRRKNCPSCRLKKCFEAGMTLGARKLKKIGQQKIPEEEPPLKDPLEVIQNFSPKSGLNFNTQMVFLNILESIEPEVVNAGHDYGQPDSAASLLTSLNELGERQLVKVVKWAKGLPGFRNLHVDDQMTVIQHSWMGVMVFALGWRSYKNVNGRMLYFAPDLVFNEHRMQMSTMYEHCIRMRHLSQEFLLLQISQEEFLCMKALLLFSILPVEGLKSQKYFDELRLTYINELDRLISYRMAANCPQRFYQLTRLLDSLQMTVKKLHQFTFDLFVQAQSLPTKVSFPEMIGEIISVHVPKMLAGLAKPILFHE
The assay can be described thus: Ligand competition assay with 1 nM [3H]-DHT, kidney cytosolic extracts. The format is binding, three-spined stickleback (Gasterosteus aculeatus). As for the experimental part: (§1) The steroid specificity of receptor binding was examined using a competitive binding assay. […] Following incubation, the reaction was terminated by addition of DCC and centrifugation and the specific binding in each tube was determined as described above.

Assay [2] has as its target T2, stickleback ARβ2 (reticulocyte lysate) (Gasterosteus aculeatus, UniProt Q801Z2).
T2 sequence (Q801Z2 1-735): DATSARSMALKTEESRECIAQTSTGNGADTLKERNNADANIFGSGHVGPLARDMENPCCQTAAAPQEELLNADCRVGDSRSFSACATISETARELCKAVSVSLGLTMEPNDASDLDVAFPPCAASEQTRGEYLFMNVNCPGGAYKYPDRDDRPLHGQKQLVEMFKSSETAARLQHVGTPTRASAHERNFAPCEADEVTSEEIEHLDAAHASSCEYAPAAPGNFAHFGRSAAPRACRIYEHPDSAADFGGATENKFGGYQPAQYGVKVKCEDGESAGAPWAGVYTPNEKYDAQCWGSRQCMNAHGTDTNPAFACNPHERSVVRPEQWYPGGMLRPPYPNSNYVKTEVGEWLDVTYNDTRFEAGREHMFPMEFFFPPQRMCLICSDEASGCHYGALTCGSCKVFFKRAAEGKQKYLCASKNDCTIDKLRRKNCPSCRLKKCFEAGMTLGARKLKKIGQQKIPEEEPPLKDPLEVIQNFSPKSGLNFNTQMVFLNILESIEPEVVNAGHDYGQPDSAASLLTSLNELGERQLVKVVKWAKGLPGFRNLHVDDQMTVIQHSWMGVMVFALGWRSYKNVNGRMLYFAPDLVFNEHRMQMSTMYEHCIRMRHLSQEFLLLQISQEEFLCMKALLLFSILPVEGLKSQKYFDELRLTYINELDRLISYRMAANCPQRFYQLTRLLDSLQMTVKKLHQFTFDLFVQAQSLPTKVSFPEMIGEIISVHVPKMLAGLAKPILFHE
The assay can be described thus: Ligand competition assay with 1 nM [3H]-DHT, ARβ2 containing reticulocyte extract. It is filed as binding, three-spined stickleback (Gasterosteus aculeatus). The method, then: The excised AR pBK CMV clones were digested with XbaI and EcoRI and the inserts were gel purified prior to ligation into the pCMV-TNT vector (Promega) between XbaI and EcoRI. […] AR was expressed by introducing the pCMV-TNT into the TNT coupled reticulocyte lysate system (Promega) according to the manufacturer's instructions. The size of the expressed products was determined by addition of S^35-methionin to the reticulocyte lysate system. The obtained protein suspension was analyzed on a denaturing 8% SDS PAGE and the sizes were determined using prestained SDS-PAGE broad range protein molecular weight standard (Bio-Rad) and a control luciferase protein of 62 kDa included in the reticulocyte lysate system (Promega). For use in binding assays AR was expressed in the absence of radioactive S^35-methionein and stored at 4°C until further used in recombinant binding assay experiments.
as §1

Assay [3] concerns AR protein and AR mRNA in stickleback kidney. The assay is described as follows: Hormone regulation of kidney AR protein (radioreceptor assay) and AR mRNA (slot blot). The format is in vivo, three-spined stickleback (Gasterosteus aculeatus). The settings on record: data not shown; for regulation of AR protein (radioreceptor assay): sticklebacks exposed for 6 days. The method, then: (§2) The fish were anesthetized with 0.1% (v/v) 2-phenoxyethanol (Sigma, St. Louis, MO, USA) and implanted intraperitoneally with Silclear silicone tubing (10-mm length, 0.6-mm inner diameter, 1.2-mm outer diameter) containing steroids dissolved in cocoa butter. […] KA was used as this steroid is converted into KT by the fish. Tubes containing cocoa butter alone were used as controls. Following implantation the fish were maintained in 50-liter aquaria containing brackish water (0.5% salinity) at 20°C under LD 16:8 h. At sampling fish were decapitated and the kidneys were excised, frozen using liquid nitrogen, and stored at -70°C. A number of experiments were performed as follows. Spiggin mRNA was measured in post-breeding females that were dissected 2 days following implantation of tubes. Cytosolic androgen-receptors were measured in females and in castrated males. Males were castrated under anesthesia as above, by making a 1.5 mm long incision into the abdominal cavity on each side and removing the testes using forceps. The females and the castrated males were implanted with control and high dose tubes and dissected after 6 days. AR mRNA was studied in females implanted for 12 h, 2 and 16 days (separate experiments) with control and high dose tubes and in males castrated as above and implanted for 10 days with control tubes and high doses of KA or E2.
(§3) Total RNA was extracted using Tri Reagent™ (Sigma). Aliquots of 10 μg of total RNA were mixed with denaturing solution (6 × SSC, 7% (v/v) formaldehyde) and transferred onto a nylon membrane (Amersham Pharmacia Biotech) using a Minifold II Slot Blot Apparatus (Schleicher and Schuell, Keene, NH, USA). Membranes were probed using either a randomly primed [α-^32P]-dCTP radiolabelled AR cDNA fragment (918 base pairs) that was isolated by reverse transcriptase-polymerase chain reaction and sequenced as above, or a randomly primed [α-^32P]-dCTP radiolabelled spiggin-α cDNA. Hybridizations were performed at 65°C overnight (6 × SCC, 0.1% (w/v) SDS, 100 μg ml^-1 tRNA, and 5 × Denhardt's solution). The membranes were washed for 2 × 30 minutes at 42°C and 65°C in 0.1 × SCC, 0.1% (w/v) SDS whereafter Hyperfilm™-MP film was exposed at -70°C. The films were visualized using Curix 60 Film Developer. Following AR and spiggin mRNA determination the membranes were stripped and analyzed for 18S rRNA using a cDNA fragment as internal control. Each AR or spiggin transcript was then semi-quantified using Quantity ONE 4.2.3 (Bio-Rad, Laboratories, Inc, Hercules, CA, USA) in relation to its internal 18S transcript.
Aliquots (250 μl) of the nuclear or cytosolic preparations were added to each tube, the tubes were vortexed and incubated over night at 4°C. To stop the binding reaction, 250 μl DCC was added to each tube. The tubes were vortexed and the suspensions were incubated for 5 min at 4°C, before spinning at 3,000 × g at 4°C for 5 min. The supernatants were decanted into 7 ml scintillation vials, 5 ml of standard scintillation cocktail was added and the radioactivity in each sample was measured in a liquid scintillation counter (Beckman LS 6000SC, Beckman Instruments, Fullerton, CA). The procedure used for the expressed recombinant ARβ2 was modified as follows. […] The expressed proteins were diluted 1:100 and aliquots (100 μl) were added to each reaction tube. The tubes were vortexed and incubated over night at 4°C. To stop the binding reaction, 200 μl DCC was added to each tube. The tubes were vortexed and the suspension were incubated for 5 min at 4°C, before spinning at 3,000 × g at 4°C for 5 min. 250 μl of the supernatant was transferred into 5 ml scintillation vials and 4 ml of standard scintillation cocktail was added before the radioactivity in each sample was measured in a liquid scintillation counter (Wallac 1409, Wallac Oy, Turku, Finland).

Assay [4] concerns spiggin mRNA in adult female stickleback kidney. The assay can be described thus: Induction of spiggin mRNA in stickleback kidney after steroid implants (slot blot). The format is in vivo, three-spined stickleback (Gasterosteus aculeatus). The method, then: as §2, §3
Assay [5] has the same test system. To be noted: cited from earlier work.
The subject of assay [6] is stickleback ARβ2. The assay is described as follows: ARE-luciferase trans-activation assay, stickleback ARβ2 in transfected HepG2 and ZFL cells. The settings on record: 40 h, versus control. The format is cell-based, three-spined stickleback (Gasterosteus aculeatus). The method, then: Two liver epithelial cell lines were used to test receptor activity. HepG2 cells (ATCC, Manassas, VA) were maintained in DMEM supplemented with 10% FCS and non-essential amino acids. ZFL cells (ATCC) were maintained in 50% L-15 Leibovitz, 15% […] and 35% DMEM supplemented with 10% FCS (Gibco, Paisley, Scotland, UK) and 50 ng ml-1 EGF (Sigma). Cells were cultured at 37°C (HepG2) or 28°C (ZFL) in 5% CO2. The transfection experiments were initiated by replacing the tissue culture medium with fresh phenol-free medium supplemented with charcoal stripped FCS and the cells were seeded on 24-well plates. Transfections were performed at 90–95% confluence using 1,5 μl Lipofectamine 2000 (Invitrogen, Carlsbad, CA, USA) and 0,6 μg DNA per well. Transfected DNA contained 60 ng pRL (Promega), 270 ng androgen response element (ARE) luciferase reporter vector, 270 ng stickleback ARβ2 expression vector or 270 ng human AR expression vector (pCMVhAR) while 270 ng empty TNT cloning vector was used to control background luciferase levels following transfections. Two different ARE containing promoter constructs were tested, one containing 3 separate ARE (HRE; slp-ARU) and a second one construct (slp-HRE2) containing 4 copies of the ARE with high affinity for R1881, a synthetic androgen, and low affinity for dexamethasone, a synthetic glucocorticoid.
After 16 h the transfection medium was replaced with fresh phenol-free medium, supplemented with charcoal stripped FCS, containing different steroid hormones. The cells were exposed to the hormones for 40 h and luciferase levels were detected using the Dual Luciferase Assay kit (Promega) in a TD 20/20 Luminometer (Turner Designs, Sunnyvale, CA). For each cell line, transfection assay was performed for each concentration with n = 4 and the luciferase value of each assay were normalized to its corresponding Renilla luciferase activity. Each experiment was repeated a minimum of 3 times. The fold-induction is presented as luciferase values normalized against the control. The control levels were arbitrarily set to 1.0 for each cell line.

Assay [7] concerns rainbow trout ARα. To be noted: COS-1 cell line; read-out: IC50 (ligand binding); cited from earlier work.

Structures are written as SMILES.

For orientation: EC50 means the concentration giving half of the maximal effect. In general, IC50 refers to the concentration that gives 50% inhibition.

In the case of `C[C@@H](O)[C@@]1(O)CC[C@H]2[C@@H]3CCC4=CC(=O)CC[C@]4(C)[C@H]3CC[C@@]21C` [17,20β-P, 17,20β-dihydroxy-4-pregnen-3-one], the “binding observed (competition for [3H]-DHT)” value (“binding observed” below) in assay [1] is “not”.

As to `C[C@]12CC[C@@H]3c4ccc(O)cc4CC[C@H]3[C@@H]1CC[C@@H]2O` [E2, 17β-estradiol], the half-maximal effective concentration (EC50) in assay [2] (read-out: EC50 (competition for [3H]-DHT binding)) is 64.61 ± 0.28 nM. In assay [3], the “regulation of AR mRNA (slot blot)” value was “repressor” and the “regulation of AR protein (radioreceptor assay)” value (from here on “regulation of AR protein”) was “repressor”.

As for `C[C@]12CCC(=O)C=C1CC[C@@H]1[C@@H]2C(=O)C[C@]2(C)C(=O)CC[C@@H]12` [KA, 11-ketoandrostenedione], the “effectiveness at increasing kidney spiggin mRNA levels relative to T” value in assay [4] (25 μg implant dose, females) was found to be 50 times. For the same compound, in assay [4] (females implanted with 25 μg KA, 2 days, versus control), the “increase in spiggin mRNA levels” value worked out at 30 fold. Also, in assay [3], the “regulation of AR mRNA (slot blot)” value is “None of the three tested androgens regulated” and the “regulation of AR protein” value is listed as “None of the three tested androgens regulated”. For the same compound, the “spiggin mRNA induction after longer exposures” value in assay [5] (16 days exposure) was “only observed with KA”.

Regarding `CC(C)C(=O)Nc1ccc([N+](=O)[O-])c(C(F)(F)F)c1` [flutamide], the “blocking of androgen induction of spiggin protein and mRNA synthesis” value in assay [5] (anti-androgen, ref 25 and Olsson, Berg, Lindberg, unpublished results) is on record as “can be blocked”.

As for `C[C@]12CC[C@H]3[C@@H](CCC4=CC(=O)CC[C@@]43C)[C@@H]1CC[C@@H]2O` [T, testosterone], the spiggin induction entry in assay [4] (1 μg implant dose, females) was “not inducing spiggin production”. Further, in assay [3], the “regulation of AR mRNA (slot blot)” value is “None of the three tested androgens regulated” and the “regulation of AR protein” value is “None of the three tested androgens regulated”.

In the case of `C[C@]12CCC(=O)C[C@@H]1CC[C@@H]1[C@@H]2CC[C@]2(C)[C@@H](O)CC[C@@H]12` [DHT, 5α-dihydrotestosterone], in assay [3], the “regulation of AR mRNA (slot blot)” value was “None of the three tested androgens regulated” and the “regulation of AR protein” value is listed as “None of the three tested androgens regulated”. Further, in assay [6] (HepG2 cells), the “induction of luciferase activity” value came to 4.1 fold. In addition, the “induction of luciferase activity” value in assay [6] (ZFL cells) is 4.5 fold. Besides, the IC50 in assay [7] is 0.6 nM.

`CC12CCC(=O)C=C1CCC1C2CCC2(C)C1CCC2(O)C(O)CO` (stereo not drawn) [20β-S, 17,20β,21-trihydroxy-4-pregnen-3-one]: the “binding observed” value in assay [1] was “not”.

Take `C[C@]12CCC(=O)C=C1CC[C@@H]1[C@@H]2[C@@H](O)C[C@@]2(C)[C@H]1CC[C@]2(O)C(=O)CO` [F, cortisol]: the “binding observed” value in assay [1] is listed as “not”. Besides, the “binding (competition for [3H]-DHT)” value in assay [2] is “poor binding”.
